From publication PMC9748837 (Chemico-Biological Interactions, 2021) come the findings set out here.

In general, inhibition refers to the relative decrease from the control value, in per cent. Lower therefore signals little suppression. Usually IC50 stands for the point on the concentration scale where inhibition reaches its midpoint. Read a high IC50 as weaker potency.

The target in one data set is T1, OATP1B1 (Homo sapiens, UniProt Q9Y6L6).
T1 sequence (Q9Y6L6 1-691): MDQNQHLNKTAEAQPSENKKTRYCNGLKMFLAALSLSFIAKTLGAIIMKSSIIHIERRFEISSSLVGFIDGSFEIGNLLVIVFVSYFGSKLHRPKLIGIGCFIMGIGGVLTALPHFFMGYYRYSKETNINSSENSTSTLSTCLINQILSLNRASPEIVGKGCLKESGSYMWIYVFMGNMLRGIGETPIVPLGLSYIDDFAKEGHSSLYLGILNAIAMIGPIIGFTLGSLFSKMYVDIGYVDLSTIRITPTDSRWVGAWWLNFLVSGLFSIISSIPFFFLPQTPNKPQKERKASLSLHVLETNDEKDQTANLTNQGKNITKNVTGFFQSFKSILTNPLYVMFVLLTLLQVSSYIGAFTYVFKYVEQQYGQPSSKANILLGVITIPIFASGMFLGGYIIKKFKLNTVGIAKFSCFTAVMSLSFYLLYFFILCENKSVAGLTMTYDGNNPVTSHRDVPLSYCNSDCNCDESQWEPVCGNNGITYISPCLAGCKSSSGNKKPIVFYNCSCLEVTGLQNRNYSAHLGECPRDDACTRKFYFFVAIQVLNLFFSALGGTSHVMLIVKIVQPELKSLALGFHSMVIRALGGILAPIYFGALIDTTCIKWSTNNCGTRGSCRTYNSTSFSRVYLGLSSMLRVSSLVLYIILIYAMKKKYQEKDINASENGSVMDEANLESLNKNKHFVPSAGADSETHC
It counts as cell-based. The note with it: hek-oatp1b1 cells.

A further data set has as its target T2, OATP2B1 (Homo sapiens, UniProt O94956).
T2 sequence (O94956 1-709): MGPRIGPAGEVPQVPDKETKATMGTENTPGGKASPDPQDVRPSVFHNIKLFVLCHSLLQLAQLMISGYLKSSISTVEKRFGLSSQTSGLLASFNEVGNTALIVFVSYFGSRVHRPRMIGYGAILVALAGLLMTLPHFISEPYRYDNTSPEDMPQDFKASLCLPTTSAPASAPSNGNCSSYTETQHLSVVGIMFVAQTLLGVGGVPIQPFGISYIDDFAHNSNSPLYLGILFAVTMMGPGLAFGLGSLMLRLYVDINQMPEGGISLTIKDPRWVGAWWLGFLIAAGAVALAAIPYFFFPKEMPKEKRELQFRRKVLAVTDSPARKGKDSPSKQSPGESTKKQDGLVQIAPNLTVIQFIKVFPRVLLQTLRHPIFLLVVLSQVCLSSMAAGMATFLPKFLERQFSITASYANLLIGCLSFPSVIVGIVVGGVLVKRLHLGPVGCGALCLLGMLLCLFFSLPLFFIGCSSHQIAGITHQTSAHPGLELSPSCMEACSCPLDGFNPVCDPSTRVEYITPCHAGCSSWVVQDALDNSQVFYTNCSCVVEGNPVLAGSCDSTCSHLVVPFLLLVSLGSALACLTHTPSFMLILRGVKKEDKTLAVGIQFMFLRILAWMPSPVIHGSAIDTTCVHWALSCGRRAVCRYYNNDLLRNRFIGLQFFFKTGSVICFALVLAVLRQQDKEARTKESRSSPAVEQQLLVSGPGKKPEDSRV
The data set is classed as cell-based.

For the compound `N=C(N)Nc1ccc(C(=O)Oc2ccc(CC(=O)O)cc2)cc1` [GBPA, 4-(4-guanidinobenzoyloxy)phenylacetic acid], the inhibition at 100 µM against OATP1B1 is around 50%. Also, the IC50 on OATP2B1 is 11.1 ± 3.3 µM.
